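All cell lines were grown in 96-well plates and treated with compound for 48 hours. The concentration for 50% growth inhibition is given as GI50. TGI is the concentration that stops growth completely.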
Assays:
Assay in all cases: growth of human tumour cells (NCI), 48 h
786-0 renal = system: 786-0 renal
A498 renal = system: A498 renal
A549 NSCLC = system: A549 NSCLC
ACHN renal = system: ACHN renal
BT-549 breast = system: BT-549 breast
CAKI-1 renal = system: CAKI-1 renal
CCRF-CEM leukemia = system: CCRF-CEM leukemia
COLO 205 colon = system: COLO 205 colon
DU-145 prostate = system: DU-145 prostate
EKVX NSCLC = system: EKVX NSCLC
HCC-2998 colon = system: HCC-2998 colon
HCT-116 colon = system: HCT-116 colon
HCT-15 colon = system: HCT-15 colon
HL-60(TB) leukemia = system: HL-60(TB) leukemia
HOP-62 NSCLC = system: HOP-62 NSCLC
HOP-92 NSCLC = system: HOP-92 NSCLC
HS 578T breast = system: HS 578T breast
HT29 colon = system: HT29 colon
IGROV1 ovarian = system: IGROV1 ovarian
K-562 leukemia = system: K-562 leukemia
KM12 colon = system: KM12 colon
LOX IMVI melanoma = system: LOX IMVI melanoma
M14 melanoma = system: M14 melanoma
MALME-3M melanoma = system: MALME-3M melanoma
MCF7 breast = system: MCF7 breast
MDA-MB-231 breast = system: MDA-MB-231 breast
MDA-MB-435 = system: MDA-MB-435
MOLT-4 leukemia = system: MOLT-4 leukemia
NCI-H226 lung = system: NCI-H226 lung
NCI-H460 lung = system: NCI-H460 lung
NCI-H522 lung = system: NCI-H522 lung
NCI/ADR-RES ovarian = system: NCI/ADR-RES ovarian
OVCAR-3 ovarian = system: OVCAR-3 ovarian
OVCAR-4 ovarian = system: OVCAR-4 ovarian
OVCAR-5 ovarian = system: OVCAR-5 ovarian
OVCAR-8 ovarian = system: OVCAR-8 ovarian
PC-3 prostate = system: PC-3 prostate
RPMI-8226 leukemia = system: RPMI-8226 leukemia
RXF 393 renal = system: RXF 393 renal
SF-268 CNS = system: SF-268 CNS
SF-295 CNS = system: SF-295 CNS
SF-539 CNS = system: SF-539 CNS
SK-MEL-2 melanoma = system: SK-MEL-2 melanoma
SK-MEL-28 melanoma = system: SK-MEL-28 melanoma
SK-MEL-5 melanoma = system: SK-MEL-5 melanoma
SK-OV-3 ovarian = system: SK-OV-3 ovarian
SN12C renal = system: SN12C renal
SNB-19 CNS = system: SNB-19 CNS
SNB-75 CNS = system: SNB-75 CNS
SR leukemia = system: SR leukemia
SW-620 colon = system: SW-620 colon
T-47D breast = system: T-47D breast
TK-10 renal = system: TK-10 renal
U251 CNS = system: U251 CNS
UACC-257 melanoma = system: UACC-257 melanoma
UACC-62 melanoma = system: UACC-62 melanoma
UO-31 renal = system: UO-31 renal

SMILES: Cc1cc2nc3c4cc(Cl)ccc4n(CC(=S)NCCN(C)C)c3nc2cc1C
- GI50 (786-0 renal): 1.64 µM
- TGI (786-0 renal): 3.2 µM
- GI50 (A498 renal): 17.1 µM
- TGI (A498 renal): 31.3 µM
- GI50 (A549 NSCLC): 1.75 µM
- TGI (A549 NSCLC): 3.52 µM
- GI50 (ACHN renal): 1.6 µM
- TGI (ACHN renal): 2.95 µM
- GI50 (BT-549 breast): 13.3 µM
- TGI (BT-549 breast): 26.5 µM
- GI50 (CAKI-1 renal): 2.84 µM
- TGI (CAKI-1 renal): 14.4 µM
- GI50 (CCRF-CEM leukemia): 2.36 µM
- TGI (CCRF-CEM leukemia): 6.17 µM
- GI50 (COLO 205 colon): 1.78 µM
- TGI (COLO 205 colon): 3.49 µM
- GI50 (DU-145 prostate): 2.64 µM
- TGI (DU-145 prostate): 6.99 µM
- GI50 (EKVX NSCLC): 3.07 µM
- TGI (EKVX NSCLC): 11.8 µM
- GI50 (HCC-2998 colon): 1.66 µM
- TGI (HCC-2998 colon): 3.09 µM
- GI50 (HCT-116 colon): 1.73 µM
- TGI (HCT-116 colon): 3.17 µM
- GI50 (HCT-15 colon): 1.75 µM
- TGI (HCT-15 colon): 3.17 µM
- GI50 (HL-60(TB) leukemia): 1.87 µM
- TGI (HL-60(TB) leukemia): 3.99 µM
- GI50 (HOP-62 NSCLC): 6.68 µM
- TGI (HOP-62 NSCLC): 21.6 µM
- GI50 (HOP-92 NSCLC): 1.79 µM
- TGI (HOP-92 NSCLC): 8.06 µM
- GI50 (HS 578T breast): 11 µM
- TGI (HS 578T breast): 30.8 µM
- GI50 (HT29 colon): 1.78 µM
- TGI (HT29 colon): 3.36 µM
- GI50 (IGROV1 ovarian): 3.53 µM
- TGI (IGROV1 ovarian): 15.6 µM
- GI50 (K-562 leukemia): 2.07 µM
- TGI (K-562 leukemia): 5.21 µM
- GI50 (KM12 colon): 2.73 µM
- TGI (KM12 colon): 8.29 µM
- GI50 (LOX IMVI melanoma): 0.241 µM
- TGI (LOX IMVI melanoma): 1.77 µM
- GI50 (M14 melanoma): 1.64 µM
- TGI (M14 melanoma): 3.12 µM
- GI50 (MALME-3M melanoma): 1.86 µM
- TGI (MALME-3M melanoma): 4.16 µM
- GI50 (MCF7 breast): 1.19 µM
- TGI (MCF7 breast): 2.51 µM
- GI50 (MDA-MB-231 breast): 1.82 µM
- TGI (MDA-MB-231 breast): 3.63 µM
- GI50 (MDA-MB-435): 1.89 µM
- TGI (MDA-MB-435): 3.53 µM
- GI50 (MOLT-4 leukemia): 1.97 µM
- TGI (MOLT-4 leukemia): 4.29 µM
- GI50 (NCI-H226 lung): 10.5 µM
- TGI (NCI-H226 lung): 24.9 µM
- GI50 (NCI-H460 lung): 1.81 µM
- TGI (NCI-H460 lung): 3.35 µM
- GI50 (NCI-H522 lung): 1.72 µM
- TGI (NCI-H522 lung): 3.47 µM
- GI50 (NCI/ADR-RES ovarian): 1.87 µM
- TGI (NCI/ADR-RES ovarian): 3.7 µM
- GI50 (OVCAR-3 ovarian): 2.05 µM
- TGI (OVCAR-3 ovarian): 4.67 µM
- GI50 (OVCAR-4 ovarian): 2.81 µM
- TGI (OVCAR-4 ovarian): 10.2 µM
- GI50 (OVCAR-5 ovarian): 4.87 µM
- TGI (OVCAR-5 ovarian): 17.6 µM
- GI50 (OVCAR-8 ovarian): 1.75 µM
- TGI (OVCAR-8 ovarian): 3.39 µM
- GI50 (PC-3 prostate): 1.83 µM
- TGI (PC-3 prostate): 4.84 µM
- GI50 (RPMI-8226 leukemia): 2.75 µM
- TGI (RPMI-8226 leukemia): 7.49 µM
- GI50 (RXF 393 renal): 3.56 µM
- TGI (RXF 393 renal): 14.4 µM
- GI50 (SF-268 CNS): 5.56 µM
- TGI (SF-268 CNS): 21.1 µM
- GI50 (SF-295 CNS): 5.56 µM
- TGI (SF-295 CNS): 18.2 µM
- GI50 (SF-539 CNS): 3.33 µM
- TGI (SF-539 CNS): 12.2 µM
- GI50 (SK-MEL-2 melanoma): 14.2 µM
- TGI (SK-MEL-2 melanoma): 27.8 µM
- GI50 (SK-MEL-28 melanoma): 1.81 µM
- TGI (SK-MEL-28 melanoma): 3.43 µM
- GI50 (SK-MEL-5 melanoma): 4.09 µM
- TGI (SK-MEL-5 melanoma): 14 µM
- GI50 (SK-OV-3 ovarian): 11.8 µM
- TGI (SK-OV-3 ovarian): 24.1 µM
- GI50 (SN12C renal): 2.07 µM
- TGI (SN12C renal): 4.97 µM
- GI50 (SNB-19 CNS): 5.87 µM
- TGI (SNB-19 CNS): 19.9 µM
- GI50 (SNB-75 CNS): 11.2 µM
- TGI (SNB-75 CNS): 24.7 µM
- GI50 (SR leukemia): 2.46 µM
- TGI (SR leukemia): 6.23 µM
- GI50 (SW-620 colon): 1.68 µM
- TGI (SW-620 colon): 3.15 µM
- GI50 (T-47D breast): 5.11 µM
- TGI (T-47D breast): 20.2 µM
- GI50 (TK-10 renal): 11.4 µM
- TGI (TK-10 renal): 24.2 µM
- GI50 (U251 CNS): 1.71 µM
- TGI (U251 CNS): 3.17 µM
- GI50 (UACC-257 melanoma): 3.29 µM
- TGI (UACC-257 melanoma): 11.9 µM
- GI50 (UACC-62 melanoma): 1.81 µM
- TGI (UACC-62 melanoma): 3.62 µM
- GI50 (UO-31 renal): 1.07 µM
- TGI (UO-31 renal): 2.53 µM
